Values of other authors, collected in patent US20210069214A1, “TOPICAL COMPOSITIONS COMPRISING A CORTICOSTEROID FOR THE TREATMENT OF PSORIASIS IN PEDIATRIC PATIENTS” (priority 2019, published 2021).

Tested on: HPA axis
Settings: topical

CCC(=O)O[C@]1(C(=O)CCl)[C@@H](C)C[C@H]2[C@@H]3CCC4=CC(=O)C=C[C@]4(C)[C@@]3(F)[C@@H](O)C[C@@]21C [Clobetasol propionate, [17-(2′-chloroacetyl)-9-fluoro-11-hydroxy-10,13,16-trimethyl-3-oxo-6,7,8,11,12,14,15,16-octahydrocyclopenta[a]phenanthren-17-yl]propanoate]
dose that suppresses the HPA axis (as low as): 2 grams per day
